Experimental data published in publication PMC5655044, “Reducing Antibacterial Development Risk for GSK1322322 by Exploring Potential Human Dose Regimens in Nonclinical Efficacy Studies Using Immunocompetent Rats” (Antimicrobial Agents and Chemotherapy, 2017).
≈ marks a conversion by molar mass, not a printed value. Where “and” joins values, the source holds several entries; their conditions need not be identical. Equal values may be shown once. Read-outs that look alike come from different tables or passages of the source.

Columns and labels:
[1] = cited from earlier work; for AUC0–t Human / Cmax Human: estimated from published oral PK data; for AUC from 0 to 12 h postdosing: human
S. pneumoniae [2] = test: Rat model of S. pneumoniae pneumonia with recreated human exposure profiles; assay type: in vivo; conditions: for Reduction in bacterial burden compared with controls at baseline: LVX- and AZM-resistant S. pneumoniae isolate, recreated human profiles (LVX 500 mg, AZM 1,000/500 mg once daily)
Experimental: (§1) The respiratory tract infection model was performed as previously described by Hoover et al. with slight modifications ([25]). Briefly, rats were anesthetized with a cocktail containing ketamine hydrochloride (Ketaset; 40 mg/kg) and xylazine (Rompun; 5 mg/kg) via intramuscular injection of 150 μl. The infection was induced by instilling 200 μl of the bacterial suspension in cooled, molten nutrient agar directly into the left lung via nonsurgical intratracheal intubation. As described in detail by Hoover et al., the use of agar for the inoculum boosts the ability of these organisms to establish infection in immunocompetent animals ([25]). The final inoculum ranged from 5.7 to 6.2 log10 CFU/rat for S. pneumoniae and 6.2 to 7.5 log10 CFU/rat for H. influenzae.
(§2) Solutions were freshly prepared each day.
(§3) One set of rats was euthanized at 1 h postinfection to establish the baseline bacterial burden at the time that dosing was initiated. All remaining animals were euthanized at 96 h postinfection. Euthanasia was achieved by carbon dioxide overdose, and infected tissues were excised aseptically and homogenized in 1 ml PBS using a laboratory blender (Stomacher 80; Seward Ltd., Worthing, West Sussex, UK). The lungs were removed whole and blotted to remove excess blood prior to processing. Abscesses were excised intact by removing all surrounding skin and tissue to ensure collection of the entire infected area along with the complete abscess itself. For enumeration of viable bacterial numbers, 10-fold serial dilutions were prepared in PBS and triplicate samples of 20 μl each were inoculated onto Trypticase soy agar supplemented with 5% sheep's blood (S. pneumoniae and S. aureus) or chocolate agar (H. influenzae) by a modified Miles-Misra technique ([27], [28]), using a Hamilton Microlab AT 2 Plus system. The colonies were counted following overnight incubation at 37°C, and the limit of detection was ≤1.7 log10 CFU/tissue.
(§4) The outcome measure for efficacy was the number of bacteria isolated from the infected tissues (number of log10 CFU per lungs or number of log10 CFU per abscess) at the conclusion of the study. Results are presented either as group means or as the change in the number of CFU from that at the baseline with associated standard errors of the means (SEM) for the difference. Statistical analysis was performed using the Student t test with a significance level of 0.05.

H. influenzae [3] = test: Rat model of H. influenzae pneumonia with recreated human exposure profiles; assay type: in vivo; conditions: for Log10 reductions versus the levels at the baseline: 96 h
Experimental: as §1, §2, §3, §4

S. aureus [4] = test: Rat model of S. aureus abscess with recreated human exposure profiles; assay type: in vivo; conditions: recreated AZM 1,000/500-mg profile, all three (macrolide-resistant) S. aureus isolates
Experimental: Rats were also anesthetized as described above for establishment of the abscess infection model. A subcutaneous groin abscess was created by injecting 1 ml of the bacterial suspension in semisolid nutrient agar subcutaneously into the loose skin of the right groin area. The final inoculum for the S. aureus strains utilized ranged from 6.4 to 7.2 log10 CFU/rat.
as §2
as §3, with “For enumeration of viable bacterial numbers, 10-fold serial dilutions were prepared in PBS and triplicate samples of 20 μl each were inoculated onto Trypticase soy agar supplemented with 5% sheep's blood (S. pneumoniae and S. aureus) or chocolate agar (H. influenzae) by a modified Miles-Misra technique ([27], [28]), using a Hamilton Microlab AT 2 Plus system.” left out, “CFU/tissue. […]” for “CFU/tissue.”

S. pneumoniae [5] = test: MIC by CLSI broth microdilution, S. pneumoniae isolates; assay type: cell-based, Streptococcus pneumoniae; design: key to Susceptibility category (superscript to MIC): R, resistant; S, susceptible; NS, nonsusceptible (resistance not defined); conditions: for MIC: Streptococcus pneumoniae
Experimental: (§5) The strains chosen for these studies were clinical isolates from the GSK collection. They were selected on the basis of their desired susceptibility to GSK1322322, resistance phenotype, proven ability to produce robust infections in the rat infection models used in the present study, and previous validation in the models using positive- and negative-control antimicrobials (data on file). MICs were determined using the Clinical and Laboratory Standards Institute-recommended standards for broth microdilution ([24]) and are shown in Table 2. The MIC assay was repeated multiple times for each isolate, and results were consistent (within an accepted variation of ±1 dilution) across assays.

H. influenzae [6] = test: MIC by CLSI broth microdilution, H. influenzae isolates; assay type: cell-based, Haemophilus influenzae; design: key to Susceptibility category (superscript to MIC): R, resistant; S, susceptible; NS, nonsusceptible (resistance not defined); conditions: for MIC: Haemophilus influenzae
Experimental: as §5

S. aureus [7] = test: MIC by CLSI broth microdilution, S. aureus isolates; assay type: cell-based, Staphylococcus aureus; design: key to Susceptibility category (superscript to MIC): R, resistant; S, susceptible; NS, nonsusceptible (resistance not defined); conditions: for MIC: Staphylococcus aureus
Experimental: as §5

[8] = Blood versus plasma concentrations, human; assay type: in vitro ADME; conditions: human (data on file)
[9] = Blood versus plasma concentrations, rat; assay type: in vitro ADME; conditions: rat (data on file)
[10] = design: method as in PMID 24189245; conditions: healthy volunteers; cited from earlier work
[11] = Epithelial lining fluid penetration in infected rats; assay type: in vivo; conditions: rat, epithelial lining fluid (total drug) / plasma (free drug); infected rats (data on file); read-out: Ratio of the total drug epithelial lining fluid AUC to the free drug plasma AUC
[12] = susceptible S. pneumoniae strain, recreated human profiles, bacterial numbers reduced to below or close to the limit of detection

Row | Compound | Reduction in bacterial burden compared with controls at baseline (S. pneumoniae [2]; 96 h) | Effect on bacterial burden (S. pneumoniae [2]; [12]) | Susceptibility category (superscript to MIC) (S. pneumoniae [5]; S. pneumoniae ERY2) | Susceptibility category (superscript to MIC) (S. pneumoniae [5]; S. pneumoniae L11259) | Susceptibility category (superscript to MIC) (S. pneumoniae [5]; S. pneumoniae TPS3) | MIC (S. pneumoniae [5]; S. pneumoniae ERY2) | MIC (S. pneumoniae [5]; S. pneumoniae L11259) | MIC (S. pneumoniae [5]; S. pneumoniae TPS3) | Susceptibility category (superscript to MIC) (H. influenzae [6]; H. influenzae 511343) | Susceptibility category (superscript to MIC) (H. influenzae [6]; H. influenzae 1302002H) | Susceptibility category (superscript to MIC) (H. influenzae [6]; H. influenzae H128) | MIC (H. influenzae [6]; H. influenzae 511343) | MIC (H. influenzae [6]; H. influenzae 1302002H) | MIC (H. influenzae [6]; H. influenzae H128) | Susceptibility category (superscript to MIC) (S. aureus [7]; S. aureus A-24) | Susceptibility category (superscript to MIC) (S. aureus [7]; S. aureus PVL-2) | Susceptibility category (superscript to MIC) (S. aureus [7]; S. aureus X32601) | MIC (S. aureus [7]; S. aureus A-24) | MIC (S. aureus [7]; S. aureus PVL-2) | MIC (S. aureus [7]; S. aureus X32601) | also measured
1 | CC[C@H]1OC(=O)[C@H](C)[C@@H](O[C@H]2C[C@@](C)(OC)[C@@H](O)[C@H](C)O2)[C@H](C)[C@@H](O[C@@H]2O[C@H](C)C[C@H](N(C)C)[C@H]2O)[C@](C)(O)C[C@@H](C)CN(C)[C@H](C)[C@@H](O)[C@]1(C)O [AZM, azithromycin] | did not demonstrate any reduction in bacterial burden | highly effective | R | S | R | 16 µg/mL (≈ 21.4 µM) | 0.03 µg/mL (≈ 0.0401 µM) | 4 µg/mL (≈ 5.34 µM) | S | S | S | 4 µg/mL (≈ 5.34 µM) | 2 µg/mL (≈ 2.67 µM) | 0.5 µg/mL (≈ 0.668 µM) | R | R | R | > 64 µg/mL | > 64 µg/mL | > 64 µg/mL | AUC0–t Human ([1]; 1,000/500 mg oral steady-state profile, 24 h interval): 4.9 µg·h/mL; Cmax Human ([1]; 1,000/500 mg oral steady-state profile): 500 ng/mL; Effect on bacterial burden (S. pneumoniae [2]; second AZM-resistant S. pneumoniae isolate, recreated AZM 1,000/500 mg profile, 96 h): no effect; Log10 reductions versus the levels at the baseline (H. influenzae [3]; recreated AZM 1,000-mg loading then 500-mg profile once daily, two of three H. influenzae isolates): 1.2 log10 CFU/lungs and 1.4 log10 CFU/lungs; Efficacy (H. influenzae [3]; recreated AZM 1,000/500-mg profile, H. influenzae isolate with AZM MIC of 4 mg/liter): ineffective; Efficacy (S. aureus [4]): ineffective
2 | Cc1nc(NNC(=O)[C@H](CC2CCCC2)CN(O)C=O)c(F)c(N2CCN3CCOC[C@@H]3C2)n1 [GSK1322322] | – | – | – | – | – | 0.5 µg/mL (≈ 1.04 µM) | 2 µg/mL (≈ 4.17 µM) | 0.5 µg/mL (≈ 1.04 µM) | – | – | – | 4 µg/mL (≈ 8.34 µM) | 4 µg/mL (≈ 8.34 µM) | 2 µg/mL (≈ 4.17 µM) | – | – | – | 4 µg/mL (≈ 8.34 µM) | 4 µg/mL (≈ 8.34 µM) | 1 µg/mL (≈ 2.09 µM) | Blood and plasma concentrations compared [8]: similar; Blood and plasma concentrations compared [9]: similar; Ratio of the total drug epithelial lining fluid AUC to the free drug plasma AUC [10]: 3.5; Kp [11]: 3.3
3 | C[C@H]1COc2c(N3CCN(C)CC3)c(F)cc3c(=O)c(C(=O)O)cn1c23 [LVX, levofloxacin] | did not demonstrate any reduction in bacterial burden | highly effective | S | S | R | 1 µg/mL (≈ 2.77 µM) | 1 µg/mL (≈ 2.77 µM) | 32 µg/mL (≈ 88.6 µM) | NS | S | S | 4 µg/mL (≈ 11.1 µM) | 0.06 µg/mL (≈ 0.166 µM) | 0.016 µg/mL (≈ 0.0443 µM) | – | S | R | – | 0.25 µg/mL (≈ 0.692 µM) | 32 µg/mL (≈ 88.6 µM) | AUC0–t Human ([1]; 500 mg single oral dose, 24 h interval): 40 µg·h/mL; Cmax Human ([1]; 500 mg single oral dose): 4300 ng/mL; Log10 reductions versus the levels at the baseline (H. influenzae [3]; recreated 500-mg LVX profile once daily, two susceptible H. influenzae isolates): 4.2 log10 CFU/lungs and 4.5 log10 CFU/lungs; Efficacy (H. influenzae [3]; recreated 500-mg LVX profile, nonsusceptible H. influenzae strain): ineffective
4 | CC(=O)NC[C@H]1CN(c2ccc(N3CCOCC3)c(F)c2)C(=O)O1 [LZD, linezolid] | – | – | – | – | – | – | – | – | – | – | – | – | – | – | S | S | S | 4 µg/mL (≈ 11.9 µM) | 2 µg/mL (≈ 5.93 µM) | 1 µg/mL (≈ 2.96 µM) | AUC0–t Human ([1]; 625 mg oral steady state, 12 h interval): 147 µg·h/mL; AUC from 0 to 12 h postdosing ([1]; LZD 625 mg oral): 147 µg·h/mL; AUC from 0 to 12 h postdosing ([1]; LZD 600-mg approved oral dose): 138 µg·h/mL
5 | Cc1onc(-c2ccccc2)c1C(=O)N[C@@H]1C(=O)N2[C@@H]1SC(C)(C)[C@@H]2C(=O)O [Oxacillin] | – | – | – | – | – | – | – | – | – | – | – | – | – | – | – | R | R | – | 32 µg/mL (≈ 79.7 µM) | > 64 µg/mL | –
